Patent US20210030022A1, “NOVEL USE OF SUBSTITUTED CHROMAN-6-OLS” (DSM IP ASSETS B.V., priority 2018, published 2021)

Experiments:
[1] = Oil Stability Index (OSI) in fish oil, Example 13; conditions: for antioxidant activity (OSI) in fish oil compared with MNT: Example 13, 0.5 and 2 mg/g; for OSI: Table 28, FG30TG fish oil, 80° C.; for Protection Factor (%): Table 34, fish oil (80° C.)
Description: The compounds of formulae (3) and (7) were used in both fish and algal oils to see their antioxidant effect in these oils. Antioxidant effect was determined using mainly the Oil Stability Index (OSI). Two concentration levels were used: 0.5 mg/g (low level) and 2 mg/g (high level), respectively, have been added to 5 g of oil and used in the Oxidative Stability Instrument operated at 80° C. with the continuous air flow rate at ˜40 psi. All samples were run in duplicate. The Protection Factors (PF) for each compound, as percentage, in oil were calculated as, [formula]

[2] = Storage stability in fish oil (PV, p-AV), Example 13; conditions: storage at 25° C.
Description: A storage stability study was performed to compare the variation of primary oxidation products, the hydroperoxides, generated during oxidation, measured in terms of peroxide value (PV) and the secondary oxidation products which were measured and determined as anisidine reactive substances or p-anisidine value (p-AV) of oil samples containing these compounds.
The two different concentrations of compounds of formulae (3) and (7) were used for the storage stability study. Each compound and MNT were added, each individually, to 40 g of fish oil samples in 60 ml amber bottles at 0.5 mg/g and 2 mg/g levels, thoroughly mixed and stored at ambient temperature for 19 days. All sample bottles were stored open to air, away from light. […] Peroxide values (PV) and p-anisidine values (p-AV) were determined at different times for 19 days.

[3] = Oil Stability Index (OSI) in crude algal oil, Example 13; conditions: for OSI: Table 33, crude algal oil (contained about 1.6 mg/g MNT prior to use), 80° C.; for Protection Factor (%): Table 35, crude algal oil (80° C.)
Description: The compounds of formulae (3) and (7) were used in both fish and algal oils to see their antioxidant effect in these oils. Antioxidant effect was determined using mainly the Oil Stability Index (OSI).
Two concentration levels were used: 0.5 mg/g (low level) and 2 mg/g (high level), respectively, have been added to 5 g of oil and used in the Oxidative Stability Instrument operated at 80° C. with the continuous air flow rate at ˜40 psi. All samples were run in duplicate. The Protection Factors (PF) for each compound, as percentage, in oil were calculated as,
The Oil Stability Indices (OSI) of crude algal oil with levels of 0.5 mg/g and 2 mg/g of compounds of formulae (3) or (7) are shown in Table 33.

[4] = Solubility in fish oil; type: physicochemical
Description: The compounds of formulae (4), (6), (8) and (9) were evaluated primarily for their oxidative stability by the Oil Stability Index (OSI) measurements. Two different levels of these antioxidants (0.5 and 2 mg/g) were used in 5 g of natural fish oil (Product code: FG30TG) and used in the Oxidative Stability Instrument at 80° C. with the air flow rate of 40 psi. The solubility of different amounts and types of antioxidants used in OSI was checked before and after the application. […]

[5] = Oil Stability Index (OSI) in fish oil, Example 12; conditions: FG30TG fish oil
Description: The compounds of formulae (4), (6), (8) and (9) were evaluated primarily for their oxidative stability by the Oil Stability Index (OSI) measurements. Two different levels of these antioxidants (0.5 and 2 mg/g) were used in 5 g of natural fish oil (Product code: FG30TG) and used in the Oxidative Stability Instrument at 80° C. with the air flow rate of 40 psi. The solubility of different amounts and types of antioxidants used in OSI was checked before and after the application.
The compounds of formulae (6) and (9) (see Table 14 below), compound of formula (4) (see Table 15 below) and compound of formula (8) (see Table 16 below) were used at different times in the Oxidative Stability instruments under similar operational conditions used for fish oil evaluations. MNT and the oil without any antioxidants (“Blank”) were always used to compare. Also, the synergistic effect of only oil soluble compounds with ascorbyl palmitate was determined using the OSI values. The polymers generated at the end of the experiment were determined by LC (LC=liquid chromatography).
The Protection Factors (PF) for each compound in oil were calculated in percentage as: […]

[6] = Storage stability in fish oil (PV, p-AV, CD), Example 12; conditions: FG30TG, 2 mg/g
Description: Tables 25, 26 and 27 show the PV (peroxide value), p-AV (p-anisidine value) and CD (Conjugated dienoic acid %) of the fish oil samples stabilized with compounds of formulae (6), (8) and (9), respectively.
For the storage stability study oil soluble compounds were used in fish oil at 2 mg/g level only. […] There was no considerable variation in p-AV and CD (Tables 26-27) during the storage.

Compound: 6-Hydroxy-7-Methoxy-2,2-Dimethyl-Chroman-4-One [Compound of formula (10)]
- antioxidant activity (OSI) in fish oil compared with MNT [1]: comparable antioxidant activity to MNT

Compound: CC(C)CCCC1(C)CCc2cc(O)ccc2O1 (centres unmarked) [Compound of formula (7), 2-(4-methylpentyl)-2-methyl-chroman-6-ol]
- OSI ([1]; 0.5 mg/g): 6.15 h
- OSI ([1]; 2 mg/g): 7.23 h
- Protection Factor (%) ([1]; 0.5 mg/g): 23%
- Protection Factor (%) ([1]; 2 mg/g): 44.5%
- antioxidant activity (OSI) in fish oil compared with MNT [1]: comparable in activity with MNT
- Peroxide values (PV, meq/kg) ([2]; 0.5 mg/g level, 1 day): 1 meq/kg
- p-Anisidine value (p-AV) ([2]; 0.5 mg/g level, 1 day): 9.5
- Peroxide values (PV, meq/kg) ([2]; 0.5 mg/g level, 5 days): 2 meq/kg
- p-Anisidine value (p-AV) ([2]; 0.5 mg/g level, 5 days): 9.8
- Peroxide values (PV, meq/kg) ([2]; 0.5 mg/g level, 8 days): 6.4 meq/kg
- p-Anisidine value (p-AV) ([2]; 0.5 mg/g level, 8 days): 11.1
- Peroxide values (PV, meq/kg) ([2]; 0.5 mg/g level, 14 days): 11.8 meq/kg
- p-Anisidine value (p-AV) ([2]; 0.5 mg/g level, 14 days): 12.4
- Peroxide values (PV, meq/kg) ([2]; 0.5 mg/g level, 19 days): 19.5 meq/kg
- p-Anisidine value (p-AV) ([2]; 0.5 mg/g level, 19 days): 12.9
- Peroxide values (PV, meq/kg) ([2]; 0.5 mg/g level, Initial): 1 meq/kg
- p-Anisidine value (p-AV) ([2]; 0.5 mg/g level, Initial): 9.4
- Peroxide values (PV, meq/kg) ([2]; 2 mg/g level, 1 day): 1 meq/kg
- p-Anisidine value (p-AV) ([2]; 2 mg/g level, 1 day): 9.3
- Peroxide values (PV, meq/kg) ([2]; 2 mg/g level, 5 days): 1.9 meq/kg
- p-Anisidine value (p-AV) ([2]; 2 mg/g level, 5 days): 9.3
- Peroxide values (PV, meq/kg) ([2]; 2 mg/g level, 8 days): 8.2 meq/kg
- p-Anisidine value (p-AV) ([2]; 2 mg/g level, 8 days): 11.1
- Peroxide values (PV, meq/kg) ([2]; 2 mg/g level, 14 days): 16.4 meq/kg
- p-Anisidine value (p-AV) ([2]; 2 mg/g level, 14 days): 11.9
- Peroxide values (PV, meq/kg) ([2]; 2 mg/g level, 19 days): 27.3 meq/kg
- p-Anisidine value (p-AV) ([2]; 2 mg/g level, 19 days): 12.9
- Peroxide values (PV, meq/kg) ([2]; 2 mg/g level, Initial): 1 meq/kg
- p-Anisidine value (p-AV) ([2]; 2 mg/g level, Initial): 9.4
- OSI ([3]; 0.5 mg/g): 16.38 h
- OSI ([3]; 2 mg/g): 18.53 h
- Protection Factor (%) ([3]; 0.5 mg/g): 9.2%
- Protection Factor (%) ([3]; 2 mg/g): 23.5%
- Solubility in oil ([4]; fish oil, 0.5 and 2 mg/g, mixed around 40° C. to dissolve completely): not readily soluble in oil

Compound: CC(C)CCCC(C)CCCC1(C)CCc2cc(O)ccc2O1 (centres unmarked) [Compound of formula (8), 2-(4,8-dimethylnonyl)-2-methyl-chroman-6-ol]
- OSI ([5]; Table 16, 80° C., 0.5 mg/g): 5.48 h
- OSI ([5]; Table 16, 80° C., 2 mg/g): 5.96 h
- Protection Factor (%) ([5]; Table 19, 0.5 mg/g): 15.42%
- Protection Factor (%) ([5]; Table 19, 2 mg/g): 25.89%
- OSI ([5]; Table 21, 2 mg/g + 0.5 mg/g of AP (ascorbyl palmitate)): 7.03 h
- OSI ([5]; Table 21, 2 mg/g, without AP): 6.58 h
- Protection Factor (%) ([5]; Table 23, 2 mg/g + 0.5 mg/g of AP): 130%
- Protection Factor (%) ([5]; Table 23, 2 mg/g, without AP): 145%
- Solubility in fish oil, 80° C. ([4]; 0.5 mg/g): soluble
- Solubility in fish oil, Room temp. ([4]; 0.5 mg/g): soluble
- Solubility in fish oil, 80° C. ([4]; 2.0 mg/g): soluble
- Solubility in fish oil, Room temp. ([4]; 2.0 mg/g): soluble
- CD (conjugated dienoic acid in %) ([6]; 4 days): 0.6%
- PV (peroxide value) ([6]; 4 days): 1.6
- p-AV (p-anisidine value) ([6]; 4 days): 10.3
- CD (conjugated dienoic acid in %) ([6]; 6 days): 0.6%
- PV (peroxide value) ([6]; 6 days): 1.8
- p-AV (p-anisidine value) ([6]; 6 days): 9.8
- CD (conjugated dienoic acid in %) ([6]; 8 days): 0.2%
- PV (peroxide value) ([6]; 8 days): 3.1
- p-AV (p-anisidine value) ([6]; 8 days): 10
- CD (conjugated dienoic acid in %) ([6]; 11 days): 0.7%
- PV (peroxide value) ([6]; 11 days): 3.7
- p-AV (p-anisidine value) ([6]; 11 days): 10.4
- CD (conjugated dienoic acid in %) ([6]; 13 days): 0.7%
- PV (peroxide value) ([6]; 13 days): 8.7
- p-AV (p-anisidine value) ([6]; 13 days): 10.6
- CD (conjugated dienoic acid in %) ([6]; 15 days): 0.8%
- PV (peroxide value) ([6]; 17 days): 11.5
- p-AV (p-anisidine value) ([6]; 17 days): 11
- CD (conjugated dienoic acid in %) ([6]; Initial): 0.7%
- PV (peroxide value) ([6]; Initial): 0.9
- p-AV (p-anisidine value) ([6]; Initial): 9.9
